A compilation of properties of binary mixtures (doi:10.1016/j.fluid.2015.05.023)

Assay: xn = mol fraction of the nth substance listed
Conditions: 100 kPa

CCCCCCCCn1cc[n+](CCCCCCCC)c1.O=S(=O)([N-]S(=O)(=O)C(F)(F)F)C(F)(F)F + O
x2 = 0.1246
Conditions | viscosity [mPa·s]
298.15 K | 120.2
313.15 K | 58.75
318.15 K | 47.76
323.15 K | 39.33
328.15 K | 32.75
333.15 K | 27.56
338.15 K | 23.43
343.15 K | 20.09
348.15 K | 17.37
353.15 K | 15.13
363.15 K | 11.72

CCCCCCC[n+]1ccn(C)c1.O=S(=O)([N-]S(=O)(=O)C(F)(F)F)C(F)(F)F + O
x2 = 0.1971
Conditions | viscosity [mPa·s]
298.15 K | 52.98
303.15 K | 42.58
313.15 K | 28.95
328.15 K | 17.77
333.15 K | 15.4
338.15 K | 13.45
343.15 K | 11.85
348.15 K | 10.51
353.15 K | 9.36
363.15 K | 7.58

CCn1cc[n+](CC)c1.O=S(=O)([N-]S(=O)(=O)C(F)(F)F)C(F)(F)F + O
x2 = 0.2772
Conditions | viscosity [mPa·s]
298.15 K | 19.32
303.15 K | 16.55
308.15 K | 14.34
313.15 K | 12.53
323.15 K | 9.8
328.15 K | 8.75
333.15 K | 7.87
338.15 K | 7.11
343.15 K | 6.46
348.15 K | 5.89
353.15 K | 5.39
363.15 K | 4.57

CCCn1cc[n+](CCC)c1.O=S(=O)([N-]S(=O)(=O)C(F)(F)F)C(F)(F)F + O
x2 = 0.2232
Conditions | viscosity [mPa·s]
298.15 K | 35.66
308.15 K | 24.31
318.15 K | 17.47
323.15 K | 15.05
328.15 K | 13.09
338.15 K | 10.15
343.15 K | 9.03
353.15 K | 7.29
358.15 K | 6.6

CCCCCn1cc[n+](CCCCC)c1.O=S(=O)([N-]S(=O)(=O)C(F)(F)F)C(F)(F)F + O
x2 = 0.1575
Conditions | viscosity [mPa·s]
298.15 K | 66.87
303.15 K | 53.1
308.15 K | 42.91
318.15 K | 29.21
323.15 K | 24.56
328.15 K | 20.86
333.15 K | 17.88
343.15 K | 13.46
348.15 K | 11.83
353.15 K | 10.46
363.15 K | 8.34

CCCCCCCCCn1cc[n+](C)c1.O=S(=O)([N-]S(=O)(=O)C(F)(F)F)C(F)(F)F + O
x2 = 0.1736
Conditions | viscosity [mPa·s]
303.15 K | 57.66
313.15 K | 39.1
328.15 K | 22.64
333.15 K | 19.7
338.15 K | 16.81
343.15 K | 14.67
348.15 K | 12.89
353.15 K | 11.68

CCCCCCCn1cc[n+](CCCCCCC)c1.O=S(=O)([N-]S(=O)(=O)C(F)(F)F)C(F)(F)F + O
x2 = 0.1365
Conditions | viscosity [mPa·s]
298.15 K | 100.8
303.15 K | 78.57
308.15 K | 62.48
313.15 K | 50.44
318.15 K | 41.29
323.15 K | 34.22
328.15 K | 28.65
333.15 K | 24.25
338.15 K | 20.67
343.15 K | 17.8
348.15 K | 15.46
353.15 K | 13.51
358.15 K | 11.9
363.15 K | 10.53

CCCCCCn1cc[n+](CCCCCC)c1.O=S(=O)([N-]S(=O)(=O)C(F)(F)F)C(F)(F)F + O
x2 = 0.1489
Conditions | viscosity [mPa·s]
298.15 K | 83.49
308.15 K | 52.59
313.15 K | 42.72
318.15 K | 35.17
323.15 K | 29.31
333.15 K | 21.02
338.15 K | 18.06
343.15 K | 15.65
348.15 K | 13.67
353.15 K | 12
358.15 K | 10.63
363.15 K | 9.466
